Assay results as given in patent US20040180927A1, “Inhibitors of cysteine protease” (SmithKline Beecham Corporation, priority 1996, published 2004).

Target: T1, cathepsin K (Homo sapiens, UniProt P43235)
T1 sequence (P43235 115-329): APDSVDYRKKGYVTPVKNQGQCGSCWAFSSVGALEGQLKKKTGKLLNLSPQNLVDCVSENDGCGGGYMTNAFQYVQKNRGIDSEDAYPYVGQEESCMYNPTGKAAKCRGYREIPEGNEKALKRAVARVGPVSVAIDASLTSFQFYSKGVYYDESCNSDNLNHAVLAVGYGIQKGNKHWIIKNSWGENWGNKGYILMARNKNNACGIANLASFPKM
Test: Determination of cathepsin K proteolytic catalytic activity; inhibition studies (progress curve method)
Type: biochemical
Settings: human recombinant enzyme, fluorogenic substrate Cbz-Phe-Arg-AMC, pH 5.5
Protocol: Determination of cathepsin K proteolytic catalytic activity
All assays for cathepsin K were carried out with human recombinant enzyme. Standard assay conditions for the determination of kinetic constants used a fluorogenic peptide substrate, typically Cbz-Phe-Arg-AMC, and were determined in 100 mM Na acetate at pH 5.5 containing 20 mM cysteine and 5 mM EDTA. Stock substrate solutions were prepared at concentrations of 10 or 20 mM in DMSO with 20 uM final substrate concentration in the assays. All assays contained 10% DMSO. […] All assays were conducted at ambient temperature. Product fluorescence (excitation at 360 nm; emission at 460 nm) was monitored with a Perceptive Biosystems Cytofluor II fluorescent plate reader. […]
Potential inhibitors were evaluated using the progress curve method. […] For those compounds whose progress curves were linear, apparent inhibition constants (Ki,app) were calculated according to equation 1 (Brandt et al., Biochemitsry, 1989, 28, 140): […]
[AMC]=νSSt+(ν0−νSS) [I−exp(−kobst)]/kobs (2) where [AMC] is the concentration of product formed over time t, ν0 is the initial reaction velocity and νSS is the final steady state rate. Values for kobs were then analyzed as a linear function of inhibitor concentration to generate an apparent second order rate constant (kobs/inhibitor concentration or kobs/[1]) describing the time-dependent inhibition. […]

Molecule `CC(C)C[C@H](NS(=O)(=O)c1cccc2cccnc12)C(=O)NC1COCC1=O` (mixture of isomers) [4-(R,S)-Amino-N-[(8-quinolinesulfonyl)-S-leucine]-3-tetrahydrofuran-3-one] has a Ki of over 10 µM.
